Test results from US20160221932A1, “Methods and Uses of Melatonin Ligands” (priority 2013, published 2016).
Entries after “also recorded” stand apart in the source; their conditions may differ.

Key:
[1] = test system: SNI rats; assay: spared nerve injury (SNI) model, dynamic plantar aesthesiometer; type: in vivo, rat; settings: for mechanical withdrawal threshold compared to untreated rats: summary statement, dose not stated
Experimental: Spared nerve injury (SNI) of the sciatic nerve and measurement of allodynia with the dynamic plantar aesthesiometer. SNI was performed according to the method of Decosterd and Woolf (2000). Rats were anaesthetized with sodium pentobarbital (50 mg/kg i.p.). The sciatic nerve was exposed at mid-thigh level […] to the trifurcation and freed of connective tissue; the three peripheral branches (sural, common peroneal, and tibial nerves) of the sciatic nerve were exposed without stretching nerve structures. Both tibial and common peroneal nerves were ligated and transected together. The sham procedure consisted of the same surgery without ligation and transection of the nerves. Fourteen days after SNI, mechanical allodynia was measured using the dynamic plantar aesthesiometer (Ugo Basile, Varese, Italy). Each rat was placed and allowed to move freely in one of the two compartments of the enclosure positioned on a metal grid surface. A mechanical stimulus was delivered to the plantar surface of the rat's hind paw through the metal grid by a steel filament (Von Frey-type), connected to a movable touch-stimulator unit exerting an increasing force of 3 g per second. The force inducing paw withdrawal was recorded to the nearest 0.1 g. Nociceptive responses for mechanical sensitivity (mechanical withdrawal threshold) were measured in grams before and after vehicle or drug administration by an experimenter blind to the treatments. A single trial at each time point was performed on the ipsilateral hind paw to SNI surgery for each rat. Nociceptive responses for mechanical sensitivity were expressed as mean±SEM (g). Groups of 6-7 rats per treatment were used, with each animal being used for one treatment only.
Statistical Analysis: Data analysis was done using SigmaPlot 12 (Systat Software, Inc.). Two-way ANOVA for repeated measures was used to analyze data from L5-L6 models using treatments (between) and testing time (within) as factors. One-way ANOVA was used to analyze AUC in the L5-L6 spinal nerves ligation model. One-way ANOVA was used for formalin and hot-plate tests. Post-hoc analyses were performed using Bonferroni t-test comparisons or Student-Newman-Keuls (SNK) test. All data are expressed as mean±Standard Error of the Mean (SEM). P<0.05 was considered significant.

[2] = test system: Wistar rats; assay: hot plate test; type: in vivo, rat; settings: for withdrawal temperature compared to untreated rats: summary statement, dose not stated
Experimental: Animals: Wistar rats (150-250 g, Charles-River Saint-Constant, Quebec, Canada) were used for the formalin test, hot plate test and L5-L6 spinal nerves ligature model. The animals were housed at constant room temperature and humidity under a 12 h light/dark cycle (lights on at 7 AM). Food and water were available ad libitum. Hot plate test: The hot-plate test was performed by using an electronically controlled hot-plate (Ugo Basile, Italy). The initial temperature was 38° C. A near linear increase in temperature (3° C. per min) was obtained by turning the heating adjustment to maximum. The temperature at which the fast hindpaw lick occurred was recorded as the nociceptive end-point. If no hindpaw lick was observed, the test was terminated at 52° C., and this cut-off value was used in the analysis. The plate was wiped with a wet cloth, and a fan located behind the plate allowed rapid cooling so that testing could be conducted every 7.5 min. Statistical Analysis: Data analysis was done using SigmaPlot 12 (Systat Software, Inc.). Two-way ANOVA for repeated measures was used to analyze data from L5-L6 models using treatments (between) and testing time (within) as factors. One-way ANOVA was used to analyze AUC in the L5-L6 spinal nerves ligation model. One-way ANOVA was used for formalin and hot-plate tests. Post-hoc analyses were performed using Bonferroni t-test comparisons or Student-Newman-Keuls (SNK) test. All data are expressed as mean±Standard Error of the Mean (SEM). P<0.05 was considered significant.

[3] = 20 mg/kg s.c., 30 min post treatment
[4] = 20 mg/kg s.c., 1 hour post treatment
[5] = 20 mg/kg s.c., 4 hours post treatment
[6] = 40 mg/kg, 1 hour post treatment
[7] = 40 mg/kg, 4 hours post treatment

SMILES | effect on mechanical allodynia compared with GBP 100 mg/kg, MLT 150 mg/kg and VEH ([1]; 20 mg/kg s.c.) | reduction of the mechanical allodynia ([1]; 20 mg/kg s.c.) | reduction of the mechanical allodynia ([1]; 40 mg/kg s.c.) | extent of reversal of mechanical allodynia ([1]; 20 and 40 mg/Kg s.c.) | mechanical withdrawal threshold compared to untreated rats [1] | withdrawal temperature vs vehicle [2, 3] | withdrawal temperature vs vehicle [2, 4] | withdrawal temperature vs vehicle [2, 5] | withdrawal temperature vs vehicle [2, 6] | withdrawal temperature vs vehicle [2, 7] | withdrawal temperature compared to untreated rats [2]
CC(=O)NCCN(c1ccc(F)cc1)c1cccc(Br)c1 [5p, N-{2-[(3-Bromophenyl)-4-fluorophenylamino]ethyl}acetamide] | greater than those produced by GBP | significant reduction of the mechanical allodynia | significant reduction of the mechanical allodynia | reversed almost completely mechanical allodynia | significant decrease in mechanical withdrawal threshold | significant increase of the withdrawal temperature | increase of withdrawal temperature; also recorded: increased the withdrawal temperature | significant increase of withdrawal temperature; also recorded: increased the withdrawal temperature | increase of withdrawal temperature | significant increase of withdrawal temperature | significant increase in withdrawal temperature
COc1cccc(N(CCNC(C)=O)c2ccccc2)c1 [5b, N-{2-[(3-Methoxyphenyl)-phenylamino]ethyl}acetamide] |  | significant reduction of the mechanical allodynia | significant reduction of the mechanical allodynia |  | significant decrease in mechanical withdrawal threshold | significant increase of the withdrawal temperature | increase of withdrawal temperature; also recorded: increased the withdrawal temperature | significant increase of withdrawal temperature; also recorded: increased the withdrawal temperature | increase of withdrawal temperature | significant increase of withdrawal temperature | significant increase in withdrawal temperature
